Measured values as given in patent US20130059907A1, “WOGONIN-CONTAINING PHARMACEUTICAL COMPOSITION FOR INHIBITING CANCER STEM CELLS GROWTH AND APPLICATION THEREOF” (National Taiwan Normal University, priority 2011, published 2013).

What was measured:
A549 cells [1] = experiment: MTT assay (cell proliferation), A549; format: cell-based; details: FIG. 1B
Experimental: NSCLC cell lines A549, NCI-H460, NCI-H520 and normal lung cell line MRCS were obtained from Bioresource Collection and Research Center (BCRC, Taiwan). A549 cell line was cultured with F12K medium (21127, GIBCO, Carlsbad, U.S.A.). Both NCI-H460 and NCI-H520 cell lines were cultured with RPMI1640 medium (23400, GIBCO, Carlsbad, U.S.A.). MRCS cell line was cultured with MEM medium (41500, GIBCO, Carlsbad, U.S.A.). All media mentioned above contained 10% FBS (10437, GIBCO, Carlsbad, U.S.A.). All cultures were maintained in an incubator (Thermo forma 370, Waltham, U.S.A.) with 5% CO2 at 37° C.
Cells were seeded at 1×10^4 cells per well in a 24-well plate for 16 hours. After that, a sample such as the wogonin solutions with different concentrations and the extract of S. baicalensis (denoted as “SB”) was added into 24-well plate directly, and cultured at 37° C. for 24, 48, and 72 hours, respectively.
Thiazolyl blue tetrazolium bromide (MTT, m5655, Sigma, St. Louis, U.S.A.) solution was prepared in a concentration of 5.5 mg/ml with phosphate buffered saline (PBS) filtered by 0.22 μm membrane. The MTT solution (50 μl) was added to the wells of 24-well plates with A549, NCI-H460, NCI-H520, and MRCS cell lines cultured after 24, 48, and 72 hours. The plates were incubated at 37° C. for 2 hours and then moved out. The media of the wells were removed. […]

A549 cells [2] = experiment: Side population analysis (Hoechst33342, with or without reserpine); format: cell-based; details: A549, dose of IC50, 48 hours, FIGS. 5A and 5B
Experimental: A549 cells were seeded in the number of about 3×10^5 in 10 cm dish to give adequate number of cells for analysis. The cells were treated with the extract of S. baicalensis and the wogonin solution in the dose of IC50 for 48 hours. Then, the treated cells were harvested by typsinization and centrifugation. The harvested cells were re-suspended in the number of 1×10^6 cells/ml in culture medium containing 2% FBS, Hoechst33342 dye (5 μg/ml, Invitrogen, Carlsbad, U.S.A.) was added with or without reserpine (50 μM, Sigma, St. Louis, U.S.A.) as a blocking reagent. The cells were further incubated at 37° C. for 2 hours under frequently gentle vortex to ensure uniform staining, and then washed with PBS. PI staining (20 ng/ml) was used to determine the live/dead cells. In order to set up the fluorescence compensation, single staining and non-staining groups were prepared. The cell samples were filtered with nylon mesh (35 μm) to prevent cell aggregation. PI-positive dead cells were primary excluded to avoid false positive signals. Then, the Hoechst blue and red dot plotting was used to determine the side population. A gate of a side population was defined by the diminishing region of two samples groups, i.e. with or without reserpine. The percentages of the side population were further analyzed by Flowjo software (TreeStar, Ashland, U.S.A.).

`COc1c(O)cc(O)c2c(=O)cc(-c3ccccc3)oc12` [wogonin solution, wogonin hydrate] was tested, and the “inhibition of A549 cell line (concentration dependence)” value (A549 cells [1]; A549, 40, 80, 120, and 160 μM, 48 hours) was “increased as the concentration of the wogonin solution increases”, the IC50 (A549 cells [1]; Homo sapiens, A549, 48 hours, read-out: half maximal inhibitory concentration (IC50)) was about 85 µM and the “side population (SP)” value (A549 cells [2]) was “significantly diminished”.
